Measurements reported in ChEMBL document CHEMBL1201862, “PubChem BioAssay data set” (2004).
Calls of active or inactive are those of the source.

Key:
[1] = target: T1, Potassium channel subfamily K member 9 (Homo sapiens, UniProt Q9NPC2); assay: KCNK9 (TASK3) current inhibition by patch clamp, SAR follow-up, selectivity assay for TASK1 (KCNK3) inhibitor project, cell-based, automated electrophysiology (AID 652210); type: functional
[2] = target: T1, Potassium channel subfamily K member 9; assay: TASK3 (KCNK9) channel inhibitors, thallium flux, SAR follow-up, selectivity assay for TASK1 inhibitor project, cell-based, FluxOR thallium flux, concentration-response (AID 652211); type: functional;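 note: potency is for inhibitors of the channel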
[3] = target: Potassium channel subfamily K member 3 (Rattus norvegicus, UniProt O54912); assay: SAR analysis for the identification of selective inhibitors of the two-pore domain potassium channel TASK1(KCNK3):Automated Electrophysiology.; type: functional
Chain of Potassium channel subfamily K member 3 (O54912 whole entry, the tested form may be a part): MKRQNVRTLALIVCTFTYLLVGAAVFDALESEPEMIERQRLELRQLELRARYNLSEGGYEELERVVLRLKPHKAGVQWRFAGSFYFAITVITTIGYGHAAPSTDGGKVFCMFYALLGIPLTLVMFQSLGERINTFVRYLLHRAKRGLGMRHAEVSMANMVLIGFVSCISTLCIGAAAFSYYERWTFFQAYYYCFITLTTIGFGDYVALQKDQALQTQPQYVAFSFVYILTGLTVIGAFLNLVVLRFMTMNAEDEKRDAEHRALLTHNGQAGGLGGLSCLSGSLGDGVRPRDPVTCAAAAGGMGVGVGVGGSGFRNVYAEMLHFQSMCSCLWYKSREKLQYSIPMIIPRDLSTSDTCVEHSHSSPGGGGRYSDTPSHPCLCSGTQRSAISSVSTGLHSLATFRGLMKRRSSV

[4] = inhibitors of SNCA 5'UTR-driven reporter translation, confirmation, H4 neuroglioma cells, luminescence (AID 1988); type: functional, cell-based
Streptokinase A = target: T2, Streptokinase A (Streptococcus pyogenes serotype M1, UniProt P10520); assay: S. pyogenes streptokinase expression inhibitors, potency, dose response, plasminogen activation absorbance, OD405 (AID 1914); type: functional, Streptococcus pyogenes M1 GAS;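 note: secreted streptokinase activity via plasminogen activation per viability signal from cell pellet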
T2 sequence (P10520 whole entry): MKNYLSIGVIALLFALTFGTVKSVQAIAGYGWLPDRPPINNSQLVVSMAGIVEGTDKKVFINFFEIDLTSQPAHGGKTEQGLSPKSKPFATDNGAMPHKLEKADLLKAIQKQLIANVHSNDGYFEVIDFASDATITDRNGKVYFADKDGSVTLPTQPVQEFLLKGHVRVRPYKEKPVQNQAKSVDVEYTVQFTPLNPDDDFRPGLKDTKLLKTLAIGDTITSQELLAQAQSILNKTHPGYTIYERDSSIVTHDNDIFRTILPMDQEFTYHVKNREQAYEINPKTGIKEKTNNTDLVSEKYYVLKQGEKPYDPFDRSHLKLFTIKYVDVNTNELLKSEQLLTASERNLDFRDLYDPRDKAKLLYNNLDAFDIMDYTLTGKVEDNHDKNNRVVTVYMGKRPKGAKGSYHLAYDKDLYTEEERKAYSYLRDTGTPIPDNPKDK

Streptococcus = assay: Group A Streptococcus viability loss, dose response, counter-screen for streptokinase expression inhibitor project, luminescence, BacTiterGlo (AID 1915); type: functional, organism-based;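 note: potency for reduction of bacterial viability or growth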
Fatty acid synthase [5] = target: T3, Fatty acid synthase (Homo sapiens, UniProt P49327); assay: FAS thioesterase domain inhibitors, dose response, biochemical, endpoint fluorescence intensity, uHTS hits (AID 624327); type: functional;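 note: fluorescence from hydrolysis of an O-methyl fluorescein acyl ester substrate by the enzyme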
T3 sequence (P49327 whole entry, the tested form may be a part): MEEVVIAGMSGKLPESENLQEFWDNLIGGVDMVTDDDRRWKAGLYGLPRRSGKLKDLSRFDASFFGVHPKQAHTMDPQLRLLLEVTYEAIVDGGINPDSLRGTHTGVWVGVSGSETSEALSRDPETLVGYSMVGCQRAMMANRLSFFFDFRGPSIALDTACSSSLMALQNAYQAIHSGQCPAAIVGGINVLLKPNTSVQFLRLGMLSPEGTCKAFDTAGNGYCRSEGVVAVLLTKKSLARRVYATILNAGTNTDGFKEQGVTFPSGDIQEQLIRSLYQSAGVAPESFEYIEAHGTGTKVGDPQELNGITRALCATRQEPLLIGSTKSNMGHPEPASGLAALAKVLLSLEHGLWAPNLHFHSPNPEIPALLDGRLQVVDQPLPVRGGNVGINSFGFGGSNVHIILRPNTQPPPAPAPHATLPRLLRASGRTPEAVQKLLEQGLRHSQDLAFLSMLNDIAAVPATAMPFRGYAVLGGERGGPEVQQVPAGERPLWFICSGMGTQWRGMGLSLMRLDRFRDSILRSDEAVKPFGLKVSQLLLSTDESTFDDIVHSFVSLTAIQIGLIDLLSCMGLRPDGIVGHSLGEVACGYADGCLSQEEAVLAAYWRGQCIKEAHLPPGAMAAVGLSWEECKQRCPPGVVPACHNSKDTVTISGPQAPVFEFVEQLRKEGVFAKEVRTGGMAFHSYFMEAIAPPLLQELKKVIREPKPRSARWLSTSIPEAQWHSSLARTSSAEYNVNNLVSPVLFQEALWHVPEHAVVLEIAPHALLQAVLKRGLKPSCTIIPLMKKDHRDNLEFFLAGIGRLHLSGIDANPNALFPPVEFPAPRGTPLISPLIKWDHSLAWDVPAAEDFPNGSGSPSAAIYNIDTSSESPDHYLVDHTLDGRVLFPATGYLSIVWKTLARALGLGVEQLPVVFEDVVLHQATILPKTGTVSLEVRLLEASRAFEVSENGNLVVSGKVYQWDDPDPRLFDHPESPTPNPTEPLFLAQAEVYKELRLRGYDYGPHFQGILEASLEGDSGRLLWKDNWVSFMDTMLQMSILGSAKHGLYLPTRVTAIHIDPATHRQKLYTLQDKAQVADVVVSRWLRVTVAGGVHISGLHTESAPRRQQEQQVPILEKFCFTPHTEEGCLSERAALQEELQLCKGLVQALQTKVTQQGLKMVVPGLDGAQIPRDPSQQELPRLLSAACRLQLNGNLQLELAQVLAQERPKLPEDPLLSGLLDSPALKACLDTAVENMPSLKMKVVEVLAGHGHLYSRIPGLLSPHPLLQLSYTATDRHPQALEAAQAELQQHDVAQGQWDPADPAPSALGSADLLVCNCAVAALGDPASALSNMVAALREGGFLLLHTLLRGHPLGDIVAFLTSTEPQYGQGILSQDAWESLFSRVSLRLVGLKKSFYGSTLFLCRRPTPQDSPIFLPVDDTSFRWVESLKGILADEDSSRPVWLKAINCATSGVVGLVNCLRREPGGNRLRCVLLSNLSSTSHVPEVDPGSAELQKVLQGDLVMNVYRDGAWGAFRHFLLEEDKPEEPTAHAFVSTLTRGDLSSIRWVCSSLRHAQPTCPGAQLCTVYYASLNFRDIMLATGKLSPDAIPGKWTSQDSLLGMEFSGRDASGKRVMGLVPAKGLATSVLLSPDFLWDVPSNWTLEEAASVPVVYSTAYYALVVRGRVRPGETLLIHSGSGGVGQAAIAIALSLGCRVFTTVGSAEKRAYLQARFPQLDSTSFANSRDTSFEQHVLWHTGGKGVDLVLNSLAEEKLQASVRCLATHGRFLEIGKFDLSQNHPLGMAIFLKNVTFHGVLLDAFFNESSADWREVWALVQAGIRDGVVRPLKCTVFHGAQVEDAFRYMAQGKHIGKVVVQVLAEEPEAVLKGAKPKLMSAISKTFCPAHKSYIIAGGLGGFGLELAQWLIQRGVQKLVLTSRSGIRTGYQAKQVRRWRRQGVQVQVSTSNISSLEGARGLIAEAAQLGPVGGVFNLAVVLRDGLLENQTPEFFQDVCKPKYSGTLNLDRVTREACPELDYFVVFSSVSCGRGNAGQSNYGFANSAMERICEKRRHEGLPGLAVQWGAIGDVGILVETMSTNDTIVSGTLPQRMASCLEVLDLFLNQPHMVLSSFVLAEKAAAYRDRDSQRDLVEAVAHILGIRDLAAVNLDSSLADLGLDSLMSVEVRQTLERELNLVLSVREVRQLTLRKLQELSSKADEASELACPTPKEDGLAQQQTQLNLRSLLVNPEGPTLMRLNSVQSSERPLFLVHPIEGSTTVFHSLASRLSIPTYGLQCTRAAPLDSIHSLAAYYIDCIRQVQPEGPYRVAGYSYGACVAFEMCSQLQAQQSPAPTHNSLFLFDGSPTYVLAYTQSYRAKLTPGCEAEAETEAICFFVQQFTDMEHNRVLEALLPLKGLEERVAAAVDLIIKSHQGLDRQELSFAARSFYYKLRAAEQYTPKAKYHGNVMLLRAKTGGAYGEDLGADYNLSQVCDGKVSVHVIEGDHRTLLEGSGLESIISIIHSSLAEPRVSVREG

cells = type: functional, cell-based
[6] = inhibitors of SNCA 5'UTR-driven translation, confirmation, luminescence, H4 neuroglioblastoma cells, dose confirmation (AID 2454); type: functional, cell-based;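 note: H4 neuroglioblastoma cells carrying an alpha-synuclein 5'UTR luciferase reporter; potency for inhibition of the luciferase signal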
[7] = target: Photoreceptor-specific nuclear receptor (Homo sapiens, UniProt Q9Y5X4); type: functional, cell-based;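 note: CHO-S cells with Gal4-NCOR and VP16-NR2E3 two-hybrid luciferase reporter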
Chain of Photoreceptor-specific nuclear receptor (Q9Y5X4 whole entry, the tested form may be a part): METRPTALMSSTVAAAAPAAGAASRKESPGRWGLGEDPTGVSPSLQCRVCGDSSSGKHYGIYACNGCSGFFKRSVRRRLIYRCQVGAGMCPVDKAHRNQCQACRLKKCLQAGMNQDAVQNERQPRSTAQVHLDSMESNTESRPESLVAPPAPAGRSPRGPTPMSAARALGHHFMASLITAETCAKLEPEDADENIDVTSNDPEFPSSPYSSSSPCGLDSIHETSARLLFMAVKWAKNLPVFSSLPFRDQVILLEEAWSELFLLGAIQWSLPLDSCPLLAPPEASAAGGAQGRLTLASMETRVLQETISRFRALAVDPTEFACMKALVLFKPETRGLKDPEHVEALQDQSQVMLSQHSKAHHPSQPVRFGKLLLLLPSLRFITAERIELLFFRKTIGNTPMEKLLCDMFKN

[8] = Luminescence-based dose response cell-based high throughput screening assay for cytotoxic compounds using the IEC-6 intestinal epithelial cell line. [Related pubchem assays: 1858 (Summary AID.), 1825 (Counterscreen.), 1907 (Confirmation screen.)]; type: functional
Paired box protein Pax-8 = Paired box protein Pax-8 (Homo sapiens, UniProt Q06710); assay: inhibitors of PAX8-driven TPO luciferase reporter, dose response, RMG-I cells, cherry-pick (AID 687027); type: functional, cell-based;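 note: luciferase reporter driven by Pax8 target thyroperoxidase promoter measured by SteadyGlo luminescence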
Chain of Paired box protein Pax-8 (Q06710 whole entry, the tested form may be a part): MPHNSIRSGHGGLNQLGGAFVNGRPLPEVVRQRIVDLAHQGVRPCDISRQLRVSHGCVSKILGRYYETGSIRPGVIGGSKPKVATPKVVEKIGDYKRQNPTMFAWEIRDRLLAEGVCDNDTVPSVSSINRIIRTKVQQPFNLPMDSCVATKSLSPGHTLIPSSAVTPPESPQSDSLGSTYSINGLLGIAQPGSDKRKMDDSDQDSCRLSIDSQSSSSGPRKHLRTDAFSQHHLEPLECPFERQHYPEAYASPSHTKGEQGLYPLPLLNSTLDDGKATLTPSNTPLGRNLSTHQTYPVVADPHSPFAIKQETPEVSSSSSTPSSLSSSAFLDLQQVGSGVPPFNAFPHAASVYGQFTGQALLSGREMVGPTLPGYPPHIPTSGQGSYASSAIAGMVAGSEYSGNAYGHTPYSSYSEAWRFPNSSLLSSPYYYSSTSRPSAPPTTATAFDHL

Fatty acid synthase [9] = target: T3, Fatty acid synthase; assay: FAS thioesterase domain inhibitors, dose response, biochemical, kinetic fluorescence intensity (AID 624326); type: functional;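 note: rate of fluorescence rise from hydrolysis of a fluorogenic O-methyl fluorescein ester substrate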
[10] = luciferase reporter signal reduction – luminescence, H4-C neuroglioblastoma cells, dose response (AID 2458); type: functional, cell-based;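 note: H4 neuroglioblastoma cells stably carrying a luciferase reporter gene fusion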
[11] = Luminescence Cell-Based Dose Response HTS to Identify Inhibitors of 5'UTR Stem-Loop Driven Prion Protein mRNA Translation in H4 Neuroglioblastoma Cells. [Related pubchem assays: 1827 (Project Summary), 1813 (Primary HTS)]; type: functional
[12] = inhibitors of firefly luciferase expression or activity, dose response, H4 neuroglioma cells, luminescence (AID 1990); type: functional, cell-based
[13] = test system: Streptococcus sp. 'group A'; assay: growth inhibition of control SK(-) GAS strain, dose response, counter-screen for streptokinase expression inhibitor project, luminescence, kanamycin, BacTiterGlo, confirmation (AID 1900); type: functional, organism-based
[14] = target: T4, DNA repair protein RAD52 homolog (Homo sapiens, UniProt P43351); type: functional, biochemical
T4 sequence (P43351 whole entry): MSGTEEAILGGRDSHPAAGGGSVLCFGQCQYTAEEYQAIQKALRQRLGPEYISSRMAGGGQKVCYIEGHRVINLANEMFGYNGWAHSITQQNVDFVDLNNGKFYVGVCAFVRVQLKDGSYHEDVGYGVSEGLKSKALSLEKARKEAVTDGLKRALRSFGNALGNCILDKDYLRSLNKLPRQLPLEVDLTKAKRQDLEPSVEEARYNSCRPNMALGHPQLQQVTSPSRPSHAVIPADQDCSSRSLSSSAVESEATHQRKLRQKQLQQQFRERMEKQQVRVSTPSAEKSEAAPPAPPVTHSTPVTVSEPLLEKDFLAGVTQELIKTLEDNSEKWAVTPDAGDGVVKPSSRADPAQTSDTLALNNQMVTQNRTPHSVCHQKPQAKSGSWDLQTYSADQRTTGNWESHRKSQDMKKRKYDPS

[15] = target: E3 ubiquitin-protein ligase UHRF1 (Homo sapiens, UniProt Q96T88); assay: Counterscreen for inhibitors of 5-meCpG-binding domain protein 2 (MBD2): TRFRET-based biochemical high throughput dose response assay to identify inhibitors of binding of ubiquitin-like with PHD and ring finger domains 1 (UHRF1) to methylated oligonucleotide.
Prothrombin = Prothrombin (Homo sapiens, UniProt P00734); assay: Thrombin 1536 HTS Dose Response Confirmation. [Related pubchem assays: 1046 (Thrombin 1536 HTS; hits were confirmed in this assay)]; type: functional
[16] = half-maximal inhibitory concentration for glucagon-like peptide-1 release, STC-1 cell line, dose-response (AID 1117345); type: functional, cell-based
[17] = Glucagon-like peptide 1 release potency, NCI-H716 cell line, dose-response, half-maximal inhibitory concentration (AID 1117344); type: functional, cell-based
Genome polyprotein = Genome polyprotein (dengue virus type 2, UniProt P29990); assay: Dengue-2 NS5 methyltransferase inhibitors, primary screen, biochemical, confirmation dose response (AID 588689); type: functional
Chain of Genome polyprotein (P29990 2492-3391 limits assumed): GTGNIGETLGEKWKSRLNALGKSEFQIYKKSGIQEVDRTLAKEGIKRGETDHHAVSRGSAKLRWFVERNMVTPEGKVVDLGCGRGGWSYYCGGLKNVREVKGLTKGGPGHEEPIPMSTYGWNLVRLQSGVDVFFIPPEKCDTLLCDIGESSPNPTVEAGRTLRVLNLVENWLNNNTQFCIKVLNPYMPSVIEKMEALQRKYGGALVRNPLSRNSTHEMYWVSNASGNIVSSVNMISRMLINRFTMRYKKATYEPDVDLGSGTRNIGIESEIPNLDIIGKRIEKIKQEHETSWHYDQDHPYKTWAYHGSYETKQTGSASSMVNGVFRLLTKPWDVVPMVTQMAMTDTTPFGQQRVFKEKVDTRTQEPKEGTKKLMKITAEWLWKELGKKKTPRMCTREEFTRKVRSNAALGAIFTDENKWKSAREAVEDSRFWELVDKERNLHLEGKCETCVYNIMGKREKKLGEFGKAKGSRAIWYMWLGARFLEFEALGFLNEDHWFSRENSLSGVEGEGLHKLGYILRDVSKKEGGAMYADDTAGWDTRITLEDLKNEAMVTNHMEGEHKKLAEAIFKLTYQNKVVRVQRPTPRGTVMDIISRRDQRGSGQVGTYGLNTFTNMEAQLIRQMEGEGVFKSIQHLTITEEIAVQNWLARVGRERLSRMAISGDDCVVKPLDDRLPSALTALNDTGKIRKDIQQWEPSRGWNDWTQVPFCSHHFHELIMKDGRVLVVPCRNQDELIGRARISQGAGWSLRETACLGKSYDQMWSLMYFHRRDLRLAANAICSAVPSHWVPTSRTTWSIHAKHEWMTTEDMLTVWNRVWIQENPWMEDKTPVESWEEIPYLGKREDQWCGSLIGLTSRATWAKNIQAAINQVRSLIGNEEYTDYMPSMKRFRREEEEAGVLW

Coagulation factor XII = target: T5, Coagulation factor XII (Homo sapiens, UniProt P00748); type: functional;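 note: activated factor XIIa alpha cleaving a fluorogenic AMC peptide substrate; inhibitor potency from loss of enzyme activity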
T5 sequence (P00748 whole entry): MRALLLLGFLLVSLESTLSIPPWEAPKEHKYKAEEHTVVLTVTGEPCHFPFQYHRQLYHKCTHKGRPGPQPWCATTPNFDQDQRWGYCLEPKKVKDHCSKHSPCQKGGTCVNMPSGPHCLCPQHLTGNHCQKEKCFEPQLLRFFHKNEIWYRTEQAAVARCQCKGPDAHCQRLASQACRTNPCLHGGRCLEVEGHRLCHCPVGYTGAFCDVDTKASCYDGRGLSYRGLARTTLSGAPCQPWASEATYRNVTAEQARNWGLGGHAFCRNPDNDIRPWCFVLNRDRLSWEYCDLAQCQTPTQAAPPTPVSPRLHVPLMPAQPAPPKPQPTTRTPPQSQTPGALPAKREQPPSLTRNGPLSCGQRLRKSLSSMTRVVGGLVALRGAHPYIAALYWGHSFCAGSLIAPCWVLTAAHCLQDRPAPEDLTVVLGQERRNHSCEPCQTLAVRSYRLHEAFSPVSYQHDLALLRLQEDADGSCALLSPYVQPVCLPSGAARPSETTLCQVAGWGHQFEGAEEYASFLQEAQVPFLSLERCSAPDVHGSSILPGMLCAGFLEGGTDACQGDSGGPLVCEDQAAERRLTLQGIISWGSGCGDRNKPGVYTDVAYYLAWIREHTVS

[18] = Vero cell cytotoxicity, dose response, cytotoxicity control for Vif-APOBEC3G degradation inhibitor project, Vero cells (AID 1117358); type: functional; details: Human immunodeficiency virus 1, Vero

T1 sequence (Q9NPC2 whole entry): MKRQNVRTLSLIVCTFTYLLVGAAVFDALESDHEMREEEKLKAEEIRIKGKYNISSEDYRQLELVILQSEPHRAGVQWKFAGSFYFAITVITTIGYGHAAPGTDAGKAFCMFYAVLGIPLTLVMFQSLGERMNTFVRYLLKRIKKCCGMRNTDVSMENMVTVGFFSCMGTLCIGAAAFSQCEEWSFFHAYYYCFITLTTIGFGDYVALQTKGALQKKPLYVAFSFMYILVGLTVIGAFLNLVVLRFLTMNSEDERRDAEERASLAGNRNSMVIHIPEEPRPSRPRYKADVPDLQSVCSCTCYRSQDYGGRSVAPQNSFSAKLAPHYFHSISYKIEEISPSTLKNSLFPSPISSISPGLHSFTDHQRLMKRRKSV

COc1cccc(C(=O)Nc2cccc(NC(=O)c3ccccc3)c2)c1
IC50 [1]: 0.42 µM (active)
IC50 [2]: 25.9 µM (active)
IC50 [3]: 0.61 µM (active)

CC(C)N1CCc2c(sc(NC(=O)c3ccc([N+](=O)[O-])o3)c2C(N)=O)C1
EC50 [4]: 0.145 µM (active)
EC50 (Streptokinase A): > 150 µM (not active)
EC50 (Streptococcus): 8.99 µM (active)
IC50 (Fatty acid synthase [5]): 6.27 µM (active)
EC50 (cells): 0.496 µM (active)
EC50 [6]: 0.953 µM (active)
IC50 [7]: 4.58 µM (active)
IC50 [8]: 1.32 µM (active)
AC50 (Paired box protein Pax-8): 1.16 µM (active)
IC50 (Fatty acid synthase [9]): 5.65 µM (active)
EC50 [10]: 0.3 µM (active)
EC50 [11]: < 0.1 µM (active)
EC50 [12]: 4.38 µM (active)
EC50 [13]: 3.19 µM (active)

CN(C)CCNC(=O)c1cccc2[nH]c(-c3ccncc3)nc12
AC50 [14]: 10 µM (active)
IC50 [15]: 10.6 µM (inactive)

Cc1ccc(NC(=O)c2ccc(OC(=O)COc3cccc(Cl)c3)cc2)cc1
IC50 (Prothrombin): 0.596 µM (active)

CC1=C(C(=O)OC(C)C)C(c2cccc([N+](=O)[O-])c2)C(C(=O)OC2CN(C(c3ccccc3)c3ccccc3)C2)=C(N)N1 (stereo not drawn) [AZELNIDIPINE]
IC50 [16]: 1.23 µM (active)
IC50 [17]: 12.8 µM (inactive)

Cc1ccc(S(=O)(=O)ON2C(=O)c3ccccc3C2=O)c(C)c1
IC50 (Genome polyprotein): 96.3 µM (active)
IC50 (Fatty acid synthase [5]): 1.35 µM (active)
IC50 (Fatty acid synthase [9]): 1.39 µM (active)
IC50 (Prothrombin): 0.856 µM (active)
IC50 (Coagulation factor XII): 8.48 µM (active)

CC(=O)Nc1ccc(S(=O)(=O)N2CCN(CCCOc3ccccc3Cl)CC2)cc1
CC50 [18]: > 40 µM (active)
